Measurements as given in US20200383985A1, “Inhibitors of Protease Activated Receptor-2” (Endosome Therapeutics, Inc., priority 2017, published 2020).
Where two headings read alike, the source gives them in different places.

What was measured:
Format in all cases: cell-based
human (h) PAR2 = target: T1, human (h) PAR2 (Homo sapiens, UniProt P55085); experiment: IP1 accumulation assay in KNRK-hPAR2 cells; details: 100 nM 2F; 30 μM of antagonist; read-out: KNRK-PAR2 100 nM 2F: ND (inhibition of 2F at 30 μM of antagonist)
T1 construct: expressed in transfected cells; host or cells: KNRK cells (KNRK-hPAR2)
T1 sequence (P55085 26-397): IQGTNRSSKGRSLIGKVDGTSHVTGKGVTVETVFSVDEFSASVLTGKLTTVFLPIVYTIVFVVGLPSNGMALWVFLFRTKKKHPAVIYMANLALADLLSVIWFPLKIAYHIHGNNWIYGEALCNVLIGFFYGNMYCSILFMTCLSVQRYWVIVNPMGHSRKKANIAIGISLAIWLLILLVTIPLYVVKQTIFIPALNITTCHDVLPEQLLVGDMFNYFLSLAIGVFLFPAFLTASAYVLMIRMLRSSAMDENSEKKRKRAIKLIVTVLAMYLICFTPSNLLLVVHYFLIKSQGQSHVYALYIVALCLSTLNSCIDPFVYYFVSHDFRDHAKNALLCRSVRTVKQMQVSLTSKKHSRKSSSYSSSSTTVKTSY
Experimental: (§1) KNRK-hPAR2, KNRK or HT-29 cells were seeded at a density of 50×10^3 cells/well in a clear poly-d-lysine coated 96 well tissue culture plate. Following 24 h incubation at 37° C. and 5% CO2, media was removed and replaced with 80 μl IP1 stimulation buffer (10 mM HEPES, 1 mM CaCl2, 0.5 mM MgCl2, 4.2 mM KCl, 146 mM NaCl, 5.5 mM glucose, 50 mM LiCl). Following stimulation buffer addition, the wells received 10 μl of 10× antagonists or DMSO vehicle. All plates were further incubated at 37° C., 5% CO2 for 30 min. 10 μl of 2F or ATP was added to the plates and further incubated for 40 min. Following incubation, stimulation buffer was quickly removed by aspiration and replaced with 25 μl lysis buffer (IP-One HTRF® assay kit, Cisbio). Following incubation of the lysates at 37° C., 5% CO2 for 10′, 10 μl lysate was transferred to a 384-well OptiPlate (PerkinElmer) and detected using the IP-One HTRF® assay kit (Cisbio).
(§2) Compounds of the invention (added at 10×concentrations in a 10 μL volume) were incubated for 30 min prior to the addition of 10 μM ATP or 100 nM or 300 nM PAR2 agonist (2F; EC80, added at 10×concentrations in a 10 μL volume) and then further incubated for 40 min. After lysis, the inositol phosphate 1 was quantified with IP-One HTRF® assay kit, Cisbio. The data was analysed with Prism, GraphPad to calculate the IC50 values, shown below in Table 1.
(§3) Inhibition of PAR2 signaling with known PAR2 inhibitor I-343 (FIG. 14A) was investigated in HT-29 cells and HEK293 cells, which express endogenous PAR2, and in KNRK cells expressing human (h) PAR2. Accumulation of inositol phosphate-1 (IP1) was measured in response to the PAR2-selective agonist 2-Furoyl-LIGRLO-NH2 (2F), an analogue of the trypsin-exposed tethered ligand, or trypsin.
(§4) KNRK-hPAR2, KNRK, HEK293, or HT-29 cells were seeded at a density of 50×10^3 cells/well onto clear 96-well plates (PerkinElmer). After 24 h of culture, medium was replaced with IP1 stimulation buffer (10 mM HEPES, 1 mM CaCl2, 0.5 mM MgCl2, 4.2 mM KCl, 146 mM NaCl, 5.5 mM glucose, 50 mM LiCl; 37° C., 5% CO2.). Cells were pre-incubated with the antagonist or vehicle for 30 min prior to the addition of agonist. Cells were then further incubated for 40 min. Stimulation buffer was […]

mouse DRG neurons [1] = experiment: Patch clamp rheobase of DRG neurons: IBS-D biopsy supernatant-induced hyperexcitability
Experimental: An investigation as whether proteases from mucosal biopsies of IBS patients cause a persistent hyperexcitability of nociceptors was conducted by a mechanism that entails endosomal signaling of PAR2. Biopsies of colonic mucosa from patients with diarrhea-predominant IBS (IBS-D) or healthy control (HC) subjects were placed in culture medium (24 h, 37° C.). Mouse DRG neurons were then exposed to biopsy supernatants (30 min, 37° C.) and washed. Rheobase was measured 30 min after washing to assess persistent hyperexcitability. Supernatants of biopsies from IBS-D patients caused a persistent decrease in rheobase, consistent with hyperexcitability, when compared to supernatants from HC subjects (rheobase at 30 min: HC, 78.33±4.41 pA, 12 neurons, supernatant from 4 HC; IBS-D, 54.55±4.74 pA, 11 neurons, supernatant from 4 IBS-D; P<0.05; ANOVA, Tukey's multiple comparisons test) (FIG. 6A, B). I-343 (10 μM), Dy4 (dynamin inhibitor, 30 μM) and PD98059 (MEK1 inhibitor, 50 μM) abolished IBS-D-induced hyperexcitability of nociceptors (FIG. 6A-D).
The Queen's University Human Ethics Committee approved human studies. All subjects gave informed consent. Endoscopic biopsies were obtained from the descending colon of 13 adult IBS-D patients (12 female) diagnosed using ROME III criteria for diarrhea predominant IBS and of 12 health controls. All IBS patients had symptoms greater than 1 year and most were greater than 5 years. Celiac disease was excluded by blood test and patients over 40 years with daily diarrhea were biopsied at the time of colonoscopy to exclude microscopic colitis. […] Biopsies (8 samples per patient) were incubated in 250 μl of RPMI medium containing 10% fetal calf serum, penicillin/streptomycin and gentamicin/amphotericin B (95% O2/5% […], 24 h, 37° C.). Supernatants were stored at −80° C. Supernatants from 4-6 patients were pooled and studied in individual experiments.
DRG innervating the colon (T9-T13) were collected from C57BL/6 mice. Ganglia were digested by incubation in collagenase IV (1 mg/ml, Worthington) and dispase (4 mg/ml, Roche) (10 min, 37° C.). DRG were triturated with a fire-polished Pasteur pipette, and further digested (5 min, 37° C.). Neurons were washed, plated onto laminin- (0.017 mg/ml) and poly-D-lysine- (2 mg/ml) coated glass coverslips, and were maintained in F12 medium containing 10% fetal calf serum, penicillin and streptomycin (95% air, 5% CO2, 16 h, 37° C.) until retrieval for electrophysiological studies.
Small-diameter (<30 pF capacitance) neurons were studied because they display characteristics of nociceptors (Valdez-Morales E. E. et al., Am J Gastroenterol 2013, 108(10): 1634-1643). Changes in excitability were quantified by measuring rheobase. Whole-cell perforated patch-clamp recordings were made using Amphotericin B (240 μg/ml, Sigma Aldrich) in current clamp mode at room temperature. The recording chamber was perfused with external solution at 2 ml/min. Recordings were made using Multiclamp 700B or Axopatch 200B amplifiers, digitized by Digidata 1440A or 1322A, and processed using pClamp 10.1 software (Molecular Devices). Solutions had the composition (mM): pipette—K-gluconate 110, KC130, HEPES 10, MgCl2 1, CaCl2 2; pH 7.25 with 1 M KOH; external—NaCl 140, KCl 5 HEPES 10, glucose 10, MgCl2 1, CaCl2 2; pH to 7.3-7.4 with 3 M NaOH. […] Neurons were also preincubated with trypsin (50 nM, 10 min), NE (390 nM, 30 min), CS (500 nM, 60 min), or vehicle (37° C.), and washed. Rheobase was measured at T 0 or T 30 min after washing. To investigate mechanisms of protease-evoked effects, neurons were incubated with I-343 (100 nM, 300 nM, 10 μM, 30 min preincubation), SCH79797 (1 μM, 10 min), Dy4 (30 μM, 30 min), PS2 (15 μM, 30 min), PD98059 (50 μM, 30 min), GF109203X (10 μM, 30 min), or vehicle (preincubation and inclusion throughout). In experiments using the tripartite antagonist, neurons were preincubated with Compound 10 (30 μM, 60 min, 37° C.) or vehicle and washed. […]

PAR2 = target: T2, PAR2 (Homo sapiens, UniProt P55085); experiment: IP1 accumulation assay in HT-29 cells (endogenous PAR2); details: 2F (300 nM)-induced IP1, HT-29 cells
T2 construct: HT-29 cells and HEK293 cells, which express endogenous PAR2; endogenous in cells; host or cells: HT-29
T2 sequence (P55085 26-397): T1 sequence (P55085 26-397)
Experimental: as §1, §2, §3, §4

mouse DRG neurons [2] = experiment: Patch clamp rheobase of DRG neurons: protease-induced hyperexcitability of nociceptors

Q: `CC(C)CCCC(C)[C@H]1CCC2C3CCC4C[C@@H](OC(=O)CC(NC(=O)CCOCCOCCOCCOCCOCCOCCOCCOCCOCCOCCOCCOCCNC(=O)Cn5cc(C(=O)N6CCN(C(=O)c7cn8nc(-c9ccc(F)cc9)cc(C(C)(C)C)c8n7)C(C)(C)C6)nn5)C(N)=O)CC[C@]4(C)C3CC[C@@]21C` (stereo in doubt) [Compound 10, (3S,10S,13R,17R)-10,13-dimethyl-17-((R)-6-methylheptan-2-yl)hexadecahydro-1H-cyclopenta[a]phenanthren-3-yl (44S)-1-(4-(4-(8-(tert-butyl)-6-(4-fluorophenyl)imidazo[1,2-b]pyridazine-2-carbonyl)-3,3-dimethylpiperazine-1-carbonyl)-1H-1,2,3-triazol-1-yl)-44-carbamoyl-2,42-dioxo-6,9,12,15,18,21,24,27,30,33,36,39-dodecaoxa-3,43-diazahexatetracontan-46-oate] was tested. Which inhibition at 30 µM (human (h) PAR2) did it give?
A: < 50%

Q: What about the “excitability of neurons treated with HC supernatant” value (mouse DRG neurons [1]) of the same compound?
A: did not affect

Q: What about the “rheobase at 30 min, IBS-D supernatant” value (mouse DRG neurons [1]) of the same compound?
A: 64.7±3.84 pA

Q: And the “persistent actions of IBS-D supernatant on nociceptor excitability” value (mouse DRG neurons [1]; 30 μM, 60 min preincubation, washed)?
A: completely prevented

Q: What about the IC50 (PAR2; read-out: HT-29 300 nM 2F (IC50)) of the same compound?
A: 0.67 µM

Q: What about the IC50 (PAR2; read-out: HT-29 300 nM 2F pIC50 ± SEM (converted)) of the same compound?
A: 0.661 µM

Q: And the baseline rheobase (mouse DRG neurons [2])?
A: no effect

Q: And the “initial excitability at 0 min after trypsin” value (mouse DRG neurons [2])?
A: did not affect

Q: And the “persistent response at 30 min after trypsin” value (mouse DRG neurons [2])?
A: prevented
